We go through one compound from patent publication US20220062296A1, “COMBINATIONS OF GABAA ALPHA 5 AGONISTS AND SV2A INHIBITORS AND METHODS OF USING IN THE TREATMENT OF COGNITIVE IMPAIRMENT” (AGENEBIO, INC., priority 2020, published 2022).

Structures are written as SMILES.

One assay deals with aged-impaired (AI) rats. As to the kind of experiment: Radial Arm Maze (RAM) task with one-hour delay, levetiracetam. Type of assay: in vivo, rat. To be noted: for effective in reducing the number of errors in the radial arm maze: levetiracetam on its own. The method, then: The effects of levetiracetam on the spatial memory retention of aged-impaired (AI) rats were assessed in a Radial Arm Maze (RAM) behavioral task using vehicle control and five different dosage levels of levetiracetam (1.25 mg/kg/day, 2.5 mg/kg/day, 5 mg/kg/day, 10 mg/kg/day and 20 mg/kg/day). RAM behavioral tasks were performed on ten AI rats. All six treatment conditions were tested on all ten rats, as described above for the MWM test. The RAM apparatus used consisted of eight equidistantly spaced arms. An elevated maze arm (7 cm width×75 cm length) projected from each facet of an octagonal center platform (30 cm diameter, 51.5 cm height). […] A food well (4 cm diameter, 2 cm deep) was located at the distal end of each arm. Froot Loops™ (Kellogg Company) were used as rewards. […] Numerous extra maze cues surrounding the apparatus were also provided. The AI rats were initially subjected to a pre-training test (Chappell et al. Neuropharmacology 37: 481-487, 1998). […] In the habituation phase, rats were familiarized to the maze for an 8-minute session on four consecutive days. In each of these sessions food rewards were scattered on the RAM, initially on the center platform and arms and then progressively confined to the arms. After this habituation phase, a standard training protocol was used, in which a food pellet was located at the end of each arm. Rats received one trial each day for 18 days. Each daily trial terminated when all eight food pellets had been obtained or when either 16 choices were made or 15 minutes had elapsed. After completion of this training phase, a second training phase was carried out in which the memory demand was increased by imposing a brief delay during the trial. At the beginning of each trial, three arms of the eight-arm maze were blocked. Rats were allowed to obtain food on the five arms to which access was permitted during this initial ‘information phase’ of the trial. Rats were then removed from the maze for 60 seconds, during which time the barriers on the maze were removed, thus allowing access to all eight arms. Rats were then placed back onto the center platform and allowed to obtain the remaining food rewards during this ‘retention test’ phase of the trial. The identity and configuration of the blocked arms varied across trials. The number of “errors” the AI rats made during the retention test phase was tracked. An error occurred in the trial if the rats entered an arm from which food had already been retrieved in the pre-delay component of the trial, or if it re-visited an arm in the post-delay session that had already been visited. After completion of the pre-training test, rats were subjected to trials with more extended delay intervals, i.e., a one-hour delay, between the information phase (presentation with some blocked arms) and the retention test (presentation of all arms). During the delay interval, rats remained off to the side of the maze in the testing room, on carts in their individual home cages. […] Injections were given every other day with intervening washout days. Each AI rat was treated with all six conditions within 23 days of testing. To counterbalance any potential bias, drug effect was assessed using ascending-descending dose series, i.e., the dose series was given first in an ascending order and then repeated in a descending order. Therefore, each dose had two determinations. Parametric statistics (paired t-tests) was used to compare the retention test performance of the AI rats in the one-hour delay version of the RAM task in the context of different doses of levetiracetam and vehicle control (see FIG. 3).

The test system of assay [1] is entorhinal cortex of aMCI subjects. Nature of the assay: fMRI activity in entorhinal cortex (EC) during explicit 3-alternative forced choice task. Type of assay: in vivo, human. To be noted: levetiracetam 125 mg twice a day for two weeks. The protocol:
A within-subjects trial of 8 weeks duration, involving 17 amnestic MCI (aMCI) subjects and 17 age-matched controls with a low dose treatment of levetiracetam is conducted. During the course of the study, each aMCI subject receives both drug and placebo treatments separately in two periods of two weeks each, with the order of treatments among different aMCI subjects counterbalanced (see FIG. 4). Age-matched control subjects treated with placebo serve as a further control. Cognitive testing and fMRI imaging data are obtained from the subjects after each two-week period of drug/placebo treatment. Imaging data are obtained through high-resolution methods developed in the Stark laboratory. Data are collected on a Phillips 3 Tesla scanner (Eindhoven, The Netherlands) equipped with an 8-channel SENSE (Sensitivity Encoding) head coil, located at the F.M. Kirby Research Center for Functional Brain Imaging at the Kennedy Krieger Institute (Baltimore, Md.). […] Group data are analyzed using a two-way Analysis of Variance (ANOVA) with trial types and group as fixed factors, and subject as a random factor nested within group. […] The activity of the subject's medial temporal lobe is measured by functional MRI during the subject's participation in an explicit 3-alternative forced choice task, where participants view novel, repeated and similar (“lure”) stimuli. […]

For the compound `CC[C@@H](C(N)=O)N1CCCC1=O` [levetiracetam, (2S)-2-(2-oxopyrrolidin-1-yl)butanamide], the “effective doses of levetiracetam in the animal model” value in the assay with aged-impaired (AI) rats (AI rats) was in the range of 5 to 10 mg/kg. Besides, in the assay on aged-impaired (AI) rats (levetiracetam 5 mg/kg/day i.p., one-hour delay, p=0.057 vs vehicle), the “average no. of errors ± standard error of the mean (SEM)” value is reported as 0.75±0.32. For the same compound, in the assay with aged-impaired (AI) rats (levetiracetam 10 mg/kg/day i.p., one-hour delay, p=0.042 vs vehicle), the “average no. of errors ± SEM” value is listed as 0.80±0.27. Also, the “performance of AI rats in the radial maze task” value in the assay on aged-impaired (AI) rats (levetiracetam 20 mg/kg) is “fails to improve the performance”. Further, the “effective in reducing the number of errors in the radial arm maze” value in the assay on aged-impaired (AI) rats (1.25 mg/kg) and with aged-impaired (AI) rats (2.5 mg/kg) was “not at 1.25 mg/kg or 2.5 mg/kg” each time. The “EC activity during memory judgments” value in assay [1] is listed as “increases EC activity”.
